What all share (assay type): physicochemical
Data set [1] in a line: Developed color of polymer plate under xenon light (color density, maximum absorption wavelength). The conditions noted are these: for Color density: 0.04 parts in polymer plate; for λ max: state of developing color, polymer plate. The text has this:
(§1) 0.04 Parts of fulgimide compounds shown in Table 3, 70 parts of tetraethyleneglycol dimethacrylate, 15 parts of triethyleneglycol dimethacrylate, 10 parts of glycidyl methacrylate, 5 parts of 2-hydroethylmethacrylate and 1 part of perbutyl ND as a polymerization catalyst, were sufficiently mixed together until they were completely dissolved. The mixture solution was poured into a mold constituted by a glass plate and a gasket of an ethylene/vinyl acetate copolymer, and its temperature was elevated in an air oven from 35° C. to 90° C. over a period of 20 hours to effect the polymerization. After the polymerization, the polymer was taken out from the glass mold.
(§2) The obtained polymer plate was irradiated with xenon light by using a Xenon Long-Life Fade Meter FAL-25AX-HC (output: 2.5 KW, source of light: xenon long-life arc lamp) manufactured by Suga Shikenki Co., in order to measure a maximum absorption wavelength in a state of developing color. The initial color tone was observed by eyes, and YI of the samples was measured by using a color-difference meter (Model SM-4) manufactured by Suga Shikenki Co. The wear life (T 1/2) was also measured in compliance with JIS L0843 and JIS B7754. T 1/2 is defined to be the time until the color density decreases down to one-half the initial value when the polymer plate is irradiated with light by using the fade meter.
(§3) For the purpose of comparison, the fulgimide compounds represented by the following formulas (A) to (I) were also used to prepare polymer plates to measure their properties in the same procedure as described above. [drawing 113]

Data set [2] in a line: Wear life (T 1/2) of polymer plate in xenon fade meter, JIS L0843 and JIS B7754. To be noted: time until color density decreases to one-half the initial value.
From the text: as §1, §2, §3

Data set [3] can be described thus: Initial color of polymer plate (visual observation, YI by color-difference meter). The conditions noted are these: for Initial color, visually observed: before irradiation; for Initial color, YI: color-difference meter SM-4.
From the text: as §1, §2, §3

In data set [1], `CCC1=C2C(=O)N(C(=O)C(Cl)(Cl)Cl)C(=O)C2C2(c3sc4cc(OC)ccc4c31)C1CC3CC(Cl)(C1)CC2(Cl)C3` (stereo not drawn) [Compound 7, 3',5'-Dichloro-3,4-dihydro-1-ethyl-7-methoxy-N-trichloromethylcarbonylspirodibenzo[5,6-b:d]thiophenedicarboxyimide-4,2'-tricyclo[3.3.1.1^3,7]decane] yielded a Color density of 0.85 and a λ max of 550 nm. Besides, the T1/2 in data set [2] was found to be 100 h. For the same compound, in data set [3], the “Initial color, visually observed” value is listed as “colorless” and the “Initial color, YI” value worked out at 2.15.

In data set [1], `COc1ccc(C2=C3C(=O)N(C(=O)c4ccccc4)C(=O)C3C3(c4oc5ccccc5c42)C2CC4CC3CC(C)(C4)C2)cc1` (stereo not drawn) [Compound 8, N-Benzoyl-3,4-dihydro-5'-methyl-1-(p-methoxyphenyl)spirobenzo[5,6-b:d]furandicarboxyimide-4,2-tricyclo[3.3.1.1^3,7]decane] came in with a Color density of 0.98 and a λ max of 541 nm. This compound also came in with a T1/2 in data set [2] of 110 h. Further, in data set [3], the “Initial color, visually observed” value is “colorless” and the “Initial color, YI” value was 3.94.

`COC12CC3CC(C1)C1(c4c(c5ccccc5n4-c4ccccc4)C(C4CC4)=C4C(=O)N(C(Cl)(Cl)Cl)C(=O)C41)C(C3)C2` (stereo not drawn) [Compound 9]: in data set [1], the Color density is on record as 1.02 and the λ max stood at 610 nm. Further, in data set [2], the T1/2 came out at 145 h. Moreover, in data set [3], the “Initial color, visually observed” value is listed as “colorless” and the “Initial color, YI” value is listed as 3.85.

In data set [1], `O=C1C2=C(C3CC3)c3c(sc4c3CCCC4)C3(C4CC5CC(C4)CC3C5)C2C(=O)N1S(=O)(=O)c1ccccc1` (stereo not drawn) [Compound 10] registered a Color density of 1.12 and a λ max of 620 nm. The same compound registered a T1/2 in data set [2] of 140 h. In data set [3], the “Initial color, visually observed” value is recorded as “pale yellow” and the “Initial color, YI” value was found to be 4.99.

In data set [1], `CC1=C2C(=O)N(C(=O)c3cccc(C#N)c3)C(=O)C2C2(c3c1c1c(n3C)CCCC1)C1CC3CC(F)(C1)CC2(F)C3` (stereo not drawn) [Compound 11] had a Color density of 0.88 and a λ max of 630 nm. Further, in data set [2], the T1/2 stood at 100 h. Besides, in data set [3], the “Initial color, visually observed” value is reported as “colorless” and the “Initial color, YI” value stood at 2.35.

In data set [1], `CC12CCCC(CCC1)C21c2sc([N+](=O)[O-])cc2C(C2CC2)=C2C(=O)N(C(=O)c3c(F)c(F)c(F)c(F)c3F)C(=O)C21` (stereo not drawn) [Compound 12] came in with a Color density of 1.02 and a λ max of 593 nm. Besides, the T1/2 in data set [2] worked out at 140 h. Also, in data set [3], the “Initial color, visually observed” value was “colorless” and the “Initial color, YI” value was 2.25.

In data set [1], `Cn1c(Cl)cc2c1C1(C3CCCC1(Cl)CCC3)C1C(=O)N(C(F)(F)F)C(=O)C1=C2c1ccccc1` (stereo not drawn) [Compound 14] gave a Color density of 0.75 and a λ max of 603 nm. The T1/2 in data set [2] turned out to be 100 h. Further, in data set [3], the “Initial color, visually observed” value was “pale yellow” and the “Initial color, YI” value amounted to 4.89.

In data set [1], `CCOC(=O)N1C(=O)C2=C(C)c3c(sc4ccccc34)C3(C4CCCC3(OC)CCC4)C2C1=O` (stereo not drawn) [Compound 15] showed a Color density of 0.85 and a λ max of 520 nm. Also, in data set [2], the T1/2 was 110 h. For the same compound, in data set [3], the “Initial color, visually observed” value is on record as “colorless” and the “Initial color, YI” value is recorded as 2.95.

In data set [1], `CC(=O)N1C(=O)C2=C(C)c3c4c(n(-c5ccccc5)c3C3(C5CCCC3CCC5)C2C1=O)CCCC4` (stereo not drawn) [Compound 16] displayed a Color density of 1.05 and a λ max of 625 nm. The T1/2 in data set [2] was determined as 100 h. Moreover, in data set [3], the “Initial color, visually observed” value was “colorless” and the “Initial color, YI” value stood at 3.56.

In data set [1], `CCCCC12CCC(CC1)C21c2sc(C)c(CC)c2C(C2CC2)=C2C(=O)N(C(=O)c3cccc(C(F)(F)F)c3)C(=O)C21` (stereo not drawn) [Compound 17] yielded a Color density of 1.10 and a λ max of 610 nm. In data set [2], this compound gave a T1/2 of 140 h. In addition, in data set [3], the “Initial color, visually observed” value is given as “colorless” and the “Initial color, YI” value is 3.10.

As to `N#CN1C(=O)C2=C(c3ccoc3)c3ccoc3C3(C4CCC3CC4)C2C1=O` (stereo not drawn) [Compound 18], in data set [1], the Color density worked out at 1.11 and the λ max is 613 nm. The compound further registered a T1/2 in data set [2] of 250 h. Further, in data set [3], the “Initial color, visually observed” value is on record as “colorless” and the “Initial color, YI” value stood at 2.95.

In data set [1], `CSc1cc2c(n1C)C1(C3C(=O)N(C(F)(F)F)C(=O)C3=C2C(C)C)C2(C)CCC1(C)CC2` (stereo not drawn) [Compound 19] returned a Color density of 0.81 and a λ max of 603 nm. The T1/2 in data set [2] was 110 h. Also, in data set [3], the “Initial color, visually observed” value is “colorless” and the “Initial color, YI” value was 3.05.

With `CCOC12CCC(CC1)C21c2sc3ccccc3c2C(CC)=C2C(=O)N(S(=O)(=O)CC)C(=O)C21` (stereo not drawn) [Compound 20], in data set [1], the Color density came out at 0.95 and the λ max was 548 nm. Besides, in data set [2], the T1/2 turned out to be 100 h. Also, in data set [3], the “Initial color, visually observed” value is recorded as “pale yellow” and the “Initial color, YI” value turned out to be 4.85.

In data set [1], `O=C1C2=C(c3ccccc3)c3c(oc4ccccc34)C3(C4CCC3CC4)C2C(=O)N1C(Cl)(Cl)Cl` (stereo not drawn) [Compound 21] displayed a Color density of 0.95 and a λ max of 540 nm. The compound also yielded a T1/2 in data set [2] of 115 h. In addition, in data set [3], the “Initial color, visually observed” value is listed as “colorless” and the “Initial color, YI” value amounted to 2.95.

In data set [1], `CC(=O)N1C(=O)C2=C(C3CC3)c3c(sc4c3CCCC4)C3(C4CCC3CC4)C2C1=O` (stereo not drawn) [Compound 23] showed a Color density of 0.87 and a λ max of 600 nm. The compound further registered a T1/2 in data set [2] of 140 h. In addition, in data set [3], the “Initial color, visually observed” value is given as “colorless” and the “Initial color, YI” value is 2.36.

As for `CCCC1=C2C(=O)N(C(Cl)(Cl)Cl)C(=O)C2C2(c3oc4c(c31)CCCC4)C1CCC2CC1` (stereo not drawn) [Compound 24], in data set [1], the Color density is reported as 0.94 and the λ max came out at 576 nm. The T1/2 in data set [2] was 140 h. Also, in data set [3], the “Initial color, visually observed” value is listed as “colorless” and the “Initial color, YI” value worked out at 2.45.

As to `CC1=C2C(=O)N(S(=O)(=O)c3cc(Cl)cc(Cl)c3)C(=O)C2C2(c3c1c1c(n3-c3ccccc3)CCCC1)C1CCC2CC1` (stereo not drawn) [Compound 25], in data set [1], the Color density is given as 0.71 and the λ max stood at 619 nm. In data set [2], this compound had a T1/2 of 100 h. For the same compound, in data set [3], the “Initial color, visually observed” value is on record as “colorless” and the “Initial color, YI” value is listed as 3.26.

`COc1c(C)sc2c1C1(C3CC4CC(C3)CC1C4)C1C(=O)N(C(=O)Oc3ccccc3)C(=O)C1=C2C` (stereo not drawn) [Compound 26]: in data set [1], the Color density was determined as 0.54 and the λ max was determined as 546 nm. Further, the T1/2 in data set [2] is 120 h. In addition, in data set [3], the “Initial color, visually observed” value is listed as “colorless” and the “Initial color, YI” value worked out at 3.84.

Consider `CCC1=C2C(=O)N(S(=O)(=O)O)C(=O)C2C2(c3c(OC)cc(OC)cc31)C1CC3CC(C1)CC2C3` (stereo not drawn) [Compound 27], for which, in data set [1], the Color density is reported as 0.68 and the λ max is 568 nm. The T1/2 in data set [2] is 100 h. In addition, in data set [3], the “Initial color, visually observed” value is “pale yellow” and the “Initial color, YI” value came out at 4.68.

Take `CC1=C2C(=O)N(C#N)C(=O)C2C2(c3sccc31)C1CC3CC(C1)CC2C3` (stereo not drawn) [Compound 28]: in data set [1], the Color density was 0.56 and the λ max came out at 604 nm. For the same compound, in data set [2], the T1/2 came to 270 h. In data set [3], the “Initial color, visually observed” value is given as “colorless” and the “Initial color, YI” value is 2.06.

Take `N#CN1C(=O)C2=C(C3CC3)c3ccoc3C3(C4CC5CC(C4)CC3C5)C2C1=O` (stereo not drawn) [Compound 29]: in data set [1], the Color density is recorded as 0.98 and the λ max worked out at 600 nm. The same compound gave a T1/2 in data set [2] of 385 h. In data set [3], the “Initial color, visually observed” value is on record as “colorless” and the “Initial color, YI” value was 2.01.

In data set [1], `COc1cc(OC)c2c(c1)C(C)=C1C(=O)N(C#N)C(=O)C1C21C2CC3CC(C2)CC1C3` (stereo not drawn) [Compound 30] returned a Color density of 0.73 and a λ max of 590 nm. The same compound gave a T1/2 in data set [2] of 210 h. In addition, in data set [3], the “Initial color, visually observed” value is on record as “colorless” and the “Initial color, YI” value is listed as 2.21.

`CC1=C2C(=O)N(C#N)C(=O)C2C2(c3occc31)C1CC3CC(C1)CC2C3` (stereo not drawn) [Compound 31]: in data set [1], the Color density worked out at 0.65 and the λ max was determined as 580 nm. In data set [2], this compound returned a T1/2 of 265 h. In data set [3], the “Initial color, visually observed” value is reported as “colorless” and the “Initial color, YI” value is 2.00.

In data set [1], `CC(=O)N1C(=O)C2=C(C)c3ccsc3C3(C4CC5CC(C4)CC3C5)C2C1=O` (stereo not drawn) [Compound 32] came in with a Color density of 0.70 and a λ max of 550 nm. This compound also had a T1/2 in data set [2] of 105 h. In data set [3], the “Initial color, visually observed” value is on record as “colorless” and the “Initial color, YI” value is 2.11.
